According to patent US20090191183A1, “SUBSTITUTED INDOLES” (AUSPEX PHARMACEUTICALS, INC., priority 2007, published 2009):

What was measured:
[1] = In vitro human liver microsomal (HLM) stability assay; type: in vitro ADME; settings: vs non-isotopically enriched drug; 1 mg per mL liver microsome protein, 1 μM, 37° C.; + marks the range of the column head
Experimental: Liver microsomal stability assays are conducted at 1 mg per mL liver microsome protein with an NADPH-generating system in 2% NaHCO3 (2.2 mM NADPH, 25.6 mM glucose 6-phosphate, 6 units per mL glucose 6-phosphate dehydrogenase and 3.3 mM MgCl2). Test compounds are prepared as solutions in 20% acetonitrile-water and added to the assay mixture (final assay concentration 1 μM) and incubated at 37° C. Final concentration of acetonitrile in the assay should be <1%. Aliquots (50 μL) are taken out at times 0, 7.5, 15, 22.5, and 30 min, and diluted with ice cold acetonitrile (200 μL) to stop the reactions. Samples are centrifuged at 12,000 RPM for 10 min to precipitate proteins. Supernatants are transferred to micro centrifuge tubes and stored for LC/MS/MS analysis of the degradation half-life of the test compounds.

[2] = treatment of mild to moderate asthma; cited from earlier work
cytochrome P450 CYP3A4 = target: T1, cytochrome P450 CYP3A4 (Homo sapiens, UniProt P08684); settings: human liver microsomes; at concentrations near clinically achieved total plasma concentrations; cited from earlier work
T1 construct: in vitro studies using human liver microsomes; from tissue; host or cells: human liver microsomes
T1 sequence (P08684 whole entry): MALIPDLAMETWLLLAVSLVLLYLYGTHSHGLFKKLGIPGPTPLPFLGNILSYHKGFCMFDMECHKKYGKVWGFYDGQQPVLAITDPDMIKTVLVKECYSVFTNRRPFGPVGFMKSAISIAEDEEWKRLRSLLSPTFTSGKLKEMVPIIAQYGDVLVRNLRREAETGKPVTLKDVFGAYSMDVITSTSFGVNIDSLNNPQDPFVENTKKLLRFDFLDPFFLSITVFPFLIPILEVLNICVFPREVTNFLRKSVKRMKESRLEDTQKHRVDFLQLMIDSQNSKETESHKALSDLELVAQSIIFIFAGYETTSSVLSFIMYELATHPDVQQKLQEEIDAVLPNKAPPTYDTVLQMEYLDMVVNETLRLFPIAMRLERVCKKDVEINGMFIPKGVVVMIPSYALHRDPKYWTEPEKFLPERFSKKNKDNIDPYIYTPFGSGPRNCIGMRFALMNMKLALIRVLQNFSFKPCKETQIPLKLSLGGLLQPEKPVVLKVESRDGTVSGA

cytochrome P450 CYP2C9 = target: T2, cytochrome P450 CYP2C9 (Homo sapiens, UniProt P11712); settings: human liver microsomes; at concentrations near clinically achieved total plasma concentrations; cited from earlier work
T2 construct: in vitro studies using human liver microsomes; from tissue; host or cells: human liver microsomes
T2 sequence (P11712 whole entry): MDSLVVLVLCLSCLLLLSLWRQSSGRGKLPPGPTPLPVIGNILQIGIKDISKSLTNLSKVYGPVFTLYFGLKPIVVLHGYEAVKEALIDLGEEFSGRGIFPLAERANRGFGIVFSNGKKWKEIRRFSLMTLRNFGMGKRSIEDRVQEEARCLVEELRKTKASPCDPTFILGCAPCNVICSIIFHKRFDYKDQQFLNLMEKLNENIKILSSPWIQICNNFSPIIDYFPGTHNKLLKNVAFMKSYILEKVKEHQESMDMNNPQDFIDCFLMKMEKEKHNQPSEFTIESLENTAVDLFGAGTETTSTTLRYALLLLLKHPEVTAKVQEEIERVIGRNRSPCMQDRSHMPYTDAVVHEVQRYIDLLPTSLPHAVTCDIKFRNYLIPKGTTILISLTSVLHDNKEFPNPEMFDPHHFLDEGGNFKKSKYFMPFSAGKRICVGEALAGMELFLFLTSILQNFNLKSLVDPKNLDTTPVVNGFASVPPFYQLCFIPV

COc1cc(C(=O)NS(=O)(=O)c2ccccc2C)ccc1Cc1cn(C)c2ccc(NC(=O)OC3CCCC3)cc12 [Example 1, reference compound]
% increase of HLM degradation half-life, 5%-15% [1]: + (5%-15%)

[2H]C([2H])([2H])Oc1cc(C(=O)NS(=O)(=O)c2ccccc2C)ccc1Cc1cn(C)c2ccc(NC(=O)OC3CCCC3)cc12 [Example 2]
% increase of HLM degradation half-life, 5%-15% [1]: + (5%-15%)

[2H]C([2H])([2H])c1ccccc1S(=O)(=O)NC(=O)c1ccc(Cc2cn(C)c3ccc(NC(=O)OC4CCCC4)cc23)c(OC)c1 [Example 3]
% increase of HLM degradation half-life, 15%-25% [1]: + (15%-25%)

[2H]C([2H])([2H])n1cc(Cc2ccc(C(=O)NS(=O)(=O)c3ccccc3C)cc2OC)c2cc(NC(=O)OC3CCCC3)ccc21 [Example 4]
% increase of HLM degradation half-life, 15%-25% [1]: + (15%-25%)

[2H]C([2H])([2H])Oc1cc(C(=O)NS(=O)(=O)c2ccccc2C([2H])([2H])[2H])ccc1Cc1cn(C([2H])([2H])[2H])c2ccc(NC(=O)OC3([2H])C([2H])([2H])C([2H])([2H])C([2H])([2H])C3([2H])[2H])cc12 [Example 6]
% increase of HLM degradation half-life, 15%-25% [1]: + (15%-25%)

[2H]C([2H])([2H])Oc1cc(C(=O)NS(=O)(=O)c2ccccc2C([2H])([2H])[2H])ccc1Cc1cn(C([2H])([2H])[2H])c2ccc(NC(=O)OC3CCCC3)cc12 [Example 7]
% increase of HLM degradation half-life, column >25% [1]: + (>25%)

COc1cc(C(=O)NS(=O)(=O)c2ccccc2C)ccc1Cc1cn(C)c2ccc(NC(=O)OC3CCCC3)cc12 [zafirlukast, 4-(5-cyclopentyloxy-carbonylamino-1-methyl-indol-3-ylmethyl)-3-methoxy-N—O-tolylsulfonylbenzamide]
hepatotoxicity [2]: occasional idiosyncratic hepatotoxicity | inhibition of cytochrome P450 CYP3A4 isoenzyme (cytochrome P450 CYP3A4): inhibits | inhibition of cytochrome P450 CYP2C9 isoenzyme (cytochrome P450 CYP2C9): inhibits
